Measurements from patent US20130109682A1, “CYCLIC ETHER COMPOUNDS USEFUL AS KINASE INHIBITORS” (NOVARTIS AG, priority 2010, published 2013).

Key:
[1] = biological target: GSK3β (Homo sapiens, UniProt P49841); assay: GSK3β ATP depletion assay; type: biochemical; details: read-out: GSK3b IC50
Method in brief: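 Kinase activity is read as ATP consumption: luciferase luminescence reports the ATP remaining once roughly half of the 2 μM ATP is used. Reaction mix: 5 nM GSK3β, 10 μM b-CREB peptide, 50 mM Tris pH 7.5, 15 mM MgCl2, 1 mM DTT, 0.1% BSA, 2.5% DMSO. Enzyme and peptide are preincubated 15 min before ATP is added.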

[2] = biological target: PIM3 (Homo sapiens, UniProt Q86V86); assay: KinaseGlo Pim3 ATP depletion assay; type: biochemical
Method in brief: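 Residual ATP was detected by luciferase luminescence once about half had been consumed. The reaction contained 5 nM enzyme, 100 μM BAD peptide (RSRHSSYPAGT) and 40 μM ATP in 50 mM HEPES pH 7.5, 5 mM MgCl2, 1 mM DTT and 0.05% BSA with 2.5% DMSO. Compound and enzyme/peptide were premixed 15 min before ATP.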

[3] = biological target: PIM2 (Homo sapiens, UniProt Q9P1W9); assay: KinaseGlo Pim2 ATP depletion assay; type: biochemical
Method in brief: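 Compound sat 15 min with enzyme and BAD peptide before ATP was added; final levels 5 nM PIM2, 10 μM peptide, 4 μM ATP, 2.5% DMSO, pH 7.5 HEPES buffer with MgCl2, DTT, BSA. Stopped near 50% ATP consumption; remaining ATP measured by luciferase luminescence.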

[4] = system: KMS11 (human myeloma cell line); assay: Cell proliferation assay (CellTiter-Glo), KMS11; type: cell-based; details: Homo sapiens, KMS-11; KMS11-Luc cells
Method in brief: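 EC50 derived from CellTiter-Glo luminescence after 3-day exposure at 37° C. Compound was diluted to 2× in medium and added to an equal volume of cells. KMS11 myeloma cells were plated on assay day at 2000/well in IMDM with 10% FBS and sodium pyruvate.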

[5] = biological target: PIM1 (Homo sapiens, UniProt P11309); assay: KinaseGlo Pim1 ATP depletion assay; type: biochemical
Method in brief: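 IC50 is derived from residual ATP measured by KinaseGlo Plus luminescence once about half the ATP was consumed. Final conditions were 20 μM ATP, 40 μM BAD peptide and 2.5 nM kinase in HEPES pH 7.5 buffer with MgCl2, DTT and BSA, plus 2.5% DMSO. Compound and enzyme were premixed 15 min before ATP addition.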

GSK3β, sequence (P49841 whole entry, species assumed): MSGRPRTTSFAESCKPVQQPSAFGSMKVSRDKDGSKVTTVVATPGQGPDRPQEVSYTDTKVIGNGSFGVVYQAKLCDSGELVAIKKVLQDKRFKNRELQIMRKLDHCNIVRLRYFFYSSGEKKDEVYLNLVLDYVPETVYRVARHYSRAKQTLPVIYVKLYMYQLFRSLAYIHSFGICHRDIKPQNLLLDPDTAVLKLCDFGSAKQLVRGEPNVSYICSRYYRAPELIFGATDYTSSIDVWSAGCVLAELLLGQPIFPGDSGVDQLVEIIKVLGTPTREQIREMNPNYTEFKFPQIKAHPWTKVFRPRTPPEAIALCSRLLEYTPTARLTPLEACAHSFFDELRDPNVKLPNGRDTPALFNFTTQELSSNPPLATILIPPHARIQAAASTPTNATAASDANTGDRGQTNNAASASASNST
PIM2, sequence (Q9P1W9 whole entry): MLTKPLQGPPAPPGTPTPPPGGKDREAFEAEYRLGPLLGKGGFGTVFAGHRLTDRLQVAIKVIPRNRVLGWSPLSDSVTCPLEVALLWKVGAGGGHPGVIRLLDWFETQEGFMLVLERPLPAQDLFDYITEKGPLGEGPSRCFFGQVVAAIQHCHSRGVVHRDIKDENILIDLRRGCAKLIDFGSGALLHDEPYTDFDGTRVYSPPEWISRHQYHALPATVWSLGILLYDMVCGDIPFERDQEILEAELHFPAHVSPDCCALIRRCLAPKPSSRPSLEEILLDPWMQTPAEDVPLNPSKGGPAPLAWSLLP
PIM1, sequence (P11309 whole entry): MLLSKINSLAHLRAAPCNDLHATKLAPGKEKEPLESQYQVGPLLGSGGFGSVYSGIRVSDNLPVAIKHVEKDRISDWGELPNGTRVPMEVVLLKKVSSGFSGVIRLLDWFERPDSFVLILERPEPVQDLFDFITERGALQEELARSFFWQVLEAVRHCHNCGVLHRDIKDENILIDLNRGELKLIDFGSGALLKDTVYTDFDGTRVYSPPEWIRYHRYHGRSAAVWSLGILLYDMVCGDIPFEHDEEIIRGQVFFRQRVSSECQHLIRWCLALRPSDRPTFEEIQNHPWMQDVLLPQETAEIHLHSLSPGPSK

Compound	IC50 [1] [nM]	IC50 [2] [nM]	IC50 [3] [nM]	EC50 [4] [nM]	IC50 [5] [nM]
Nc1cc(F)c(-c2c(F)cccc2F)nc1C(=O)Nc1cnccc1C1=C[C@@H](O)[C@H](O)[C@@H](CCl)O1 [Example 30, 3-amino-N-(4-((2S,3S,4R)-2-(chloromethyl)-3,4-dihydroxy-3,4-dihydro-2H-pyran-6-yl)pyridin-3-yl)-6-(2,6-difluorophenyl)-5-fluoropicolinamide]	201	1	1	825	1
CC[C@H]1O[C@@H](c2ccncc2NC(=O)c2nc(-c3c(F)cccc3F)ncc2N)C[C@@H](O)[C@@H]1O [Example 18, 5-amino-2-(2,6-difluorophenyl)-N-(4-((2R,4R,5S,6R)-6-ethyl-4,5-dihydroxytetrahydro-2H-pyran-2-yl)pyridin-3-yl)pyrimidine-4-carboxamide]	191	5	5	5710	3
Nc1cnc(-c2c(F)cccc2F)nc1C(=O)Nc1cnccc1C1=C[C@@H](O)[C@H](O)[C@@H](CCl)O1 [Example 14, 5-amino-N-(4-((2S,3S,4R)-2-(chloromethyl)-3,4-dihydroxy-3,4-dihydro-2H-pyran-6-yl)pyridin-3-yl)-2-(2,6-difluorophenyl)pyrimidine-4-carboxamide]	70	3	2	2630	1
Nc1ccc(-c2c(F)cccc2F)nc1C(=O)Nc1cnccc1[C@H]1C[C@@H](N)[C@@]2(O)CCC[C@H]2O1 [Example 215, 3-amino-N-(4-((2R,4R,4aS,7aR)-4-amino-4a-hydroxyoctahydrocyclopenta[b]pyran-2-yl)pyridin-3-yl)-6-(2,6-difluorophenyl)picolinamide]	252	4	2.6	800	0.6
O=C(Nc1cnccc1[C@@H]1C[C@H](O)CCO1)c1ccc(F)c(-c2c(F)cccc2F)n1 [Example 132, 6-(2,6-difluorophenyl)-5-fluoro-N-(4-((2S,4R)-4-hydroxytetrahydro-2H-pyran-2-yl)pyridin-3-yl)picolinamide]	196	33	465	> 10000	6
C[C@H]1[C@H](C)O[C@H](c2ccncc2NC(=O)c2ccc(F)c(-c3c(F)cccc3F)n2)C[C@@H]1O (stereo in doubt) [Example 96, 6-(2,6-difluorophenyl)-5-fluoro-N-(4-((2S,4S,5R,6S)-4-hydroxy-5,6-dimethyltetrahydro-2H-pyran-2-yl)pyridin-3-yl)picolinamide]	141	3	16	3900	1
Nc1cnc(-c2c(F)cccc2F)nc1C(=O)Nc1cnccc1[C@@H]1C[C@H](O)[C@]2(O)CCCC[C@@H]2O1 [Example 175, 5-amino-2-(2,6-difluorophenyl)-N-(4-((2S,4S,4aR,8aS)-4,4a-dihydroxyoctahydro-2H-chromen-2-yl)pyridin-3-yl)pyrimidine-4-carboxamide]	598	57.4	58.7	> 10000	35.7
O=C(Nc1cnccc1[C@H]1C[C@H](Cl)[C@H](O)[C@@H](CCl)O1)c1ccc(F)c(-c2c(F)cccc2F)n1 [Example 55, N-(4-((2R,4S,5R,6S)-4-chloro-6-(chloromethyl)-5-hydroxytetrahydro-2H-pyran-2-yl)pyridin-3-yl)-6-(2,6-difluorophenyl)-5-fluoropicolinamide]	911	26	101	5500	2
O=C(Nc1cnccc1[C@H]1C[C@@H](O)[C@@]2(O)CCC[C@H]2O1)c1cccn(-c2ccccc2)c1=O [Example 194, N-(4-((2R,4R,4aS,7aR)-4,4a-dihydroxyoctahydrocyclopenta[b]pyran-2-yl)pyridin-3-yl)-2-oxo-1-phenyl-1,2-dihydropyridine-3-carboxamide]	13300	2850	> 25000	> 10000	2210
C=C[C@H]1OC(c2ccncc2NC(=O)c2ccnc(-c3c(F)cccc3F)n2)=C[C@@H](O)[C@@H]1O [Example 23, 2-(2,6-difluorophenyl)-N-(4-((2R,3S,4R)-3,4-dihydroxy-2-vinyl-3,4-dihydro-2H-pyran-6-yl)pyridin-3-yl)pyrimidine-4-carboxamide]	200	8	41	> 10000	6
C=C1[C@H](O)C[C@H](c2ccncc2NC(=O)c2nc(-c3c(F)cccc3F)ncc2N)OC12CC2 [Example 8, 5-amino-2-(2,6-difluorophenyl)-N-(4-((5R,7R)-7-hydroxy-8-methylene-4-oxaspiro[2.5]octan-5-yl)pyridin-3-yl)pyrimidine-4-carboxamide]	1330	149	323	> 10000	51
Nc1cnc(-c2c(F)cccc2F)nc1C(=O)Nc1cnccc1[C@H]1C[C@@H](O)[C@H](O)[C@@H](CCl)O1 [Example 17, 5-amino-N-(4-((2R,4R,5S,6S)-6-(chloromethyl)-4,5-dihydroxytetrahydro-2H-pyran-2-yl)pyridin-3-yl)-2-(2,6-difluorophenyl)pyrimidine-4-carboxamide]	66	4	3	4160	2
N[C@H]1C[C@@H](c2ccncc2NC(=O)c2ccc(F)c(-c3c(F)cccc3F)n2)O[C@H]2CCC[C@]21O [Example 212, N-(4-((2S,4S,4aR,7aS)-4-amino-4a-hydroxyoctahydrocyclopenta[b]pyran-2-yl)pyridin-3-yl)-6-(2,6-difluorophenyl)-5-fluoropicolinamide]	11500	155	508	3360	17.9
C[C@H]1O[C@@H](c2ccncc2NC(=O)c2csc(-c3c(F)cccc3F)n2)[C@H](F)[C@@H](O)[C@]1(C)O (stereo in doubt) [Example 68, 2-(2,6-difluorophenyl)-N-(4-((2S,3R,4S,5S,6R)-3-fluoro-4,5-dihydroxy-5,6-dimethyltetrahydro-2H-pyran-2-yl)pyridin-3-yl)thiazole-4-carboxamide]	1070	89	3390	6000	6
C[C@@H]1C[C@H](O)C[C@H](c2ccncc2NC(=O)c2ccc(F)c(-c3c(F)cccc3F)n2)O1 (stereo in doubt) [Example 126, 6-(2,6-difluorophenyl)-5-fluoro-N-(4-((2R,4S,6R)-4-hydroxy-6-methyltetrahydro-2H-pyran-2-yl)pyridin-3-yl)picolinamide]	548	52	213	> 10000	4
O=C(Nc1cnccc1C1=C[C@@H](O)[C@H](O)[C@@H](CO)O1)c1ccc(F)c(-c2c(F)cccc2F)n1 [Example 79, 6-(2,6-difluorophenyl)-N-(4-((2R,3S,4R)-3,4-dihydroxy-2-(hydroxymethyl)-3,4-dihydro-2H-pyran-6-yl)pyridin-3-yl)-5-fluoropicolinamide]	1450	3	17	> 10000	2
O=C(Nc1cnccc1[C@@H]1OCC[C@H](CO)O1)c1ccc(F)c(-c2c(F)cccc2F)n1 [Example 100, 6-(2,6-difluorophenyl)-5-fluoro-N-(4-((2R,4R)-4-(hydroxymethyl)-1,3-dioxan-2-yl)pyridin-3-yl)picolinamide]	2470	42	799	> 10000	10
C[C@@H]1O[C@H](c2ccncc2NC(=O)c2csc(-c3c(F)cccc3F)n2)C[C@H](O)[C@H]1O (stereo in doubt) [Example 135, 2-(2,6-difluorophenyl)-N-(4-((2S,4S,5R,6S)-4,5-dihydroxy-6-methyltetrahydro-2H-pyran-2-yl)pyridin-3-yl)thiazole-4-carboxamide]	76	7	149	> 10000	1
N#C[C@H]1OC(c2ccncc2NC(=O)c2nc(-c3c(F)cccc3F)c(F)cc2N)=C[C@@H](O)[C@@H]1O [Example 4, 3-amino-N-(4-((2R,3S,4R)-2-cyano-3,4-dihydroxy-3,4-dihydro-2H-pyran-6-yl)pyridin-3-yl)-6-(2,6-difluorophenyl)-5-fluoropicolinamide]	268	3.1	4	7240	1.1
